Laboratory results: patent US9901081B2, “Transgenic mouse for determining the role of senescent cells in cancer” (Buck Institute for Research on Aging, priority 2012, dated 2018)
Each block holds one molecule with its values, some of them ahead of it.

Experiments:
[1] = Metabolic cage measurements in p16-3MR mice bearing MMTV-PymT tumors; format: in vivo, mouse; settings: MMTV-PymT tumor mice; DOXO 10 mg/kg Day 7, GCV 25 mg/kg i.p. daily 5 days; average of three nocturnal measurements
Description: (§1) The MMTV-PymT tumor cells (5×10^5 cells) were injected into a mammary fat pad of each mouse. Small primary tumors formed over a period of one week. Then doxorubicin (DOXO) at 10 mg/kg or vehicle only (PBS) was administered once at Day 7. Beginning three days after mice received DOXO, GCV was then administered daily for five days intraperitoneally at 25 mg/kg, or vehicle only was administered. Four different treatment groups of mice (7 mice per group) included (1) no doxorubicin (vehicle), no GCV (vehicle); (2) doxorubicin, no GCV; (3) no doxorubicin, GCV; and (4) doxorubicin, GCV. Bioluminescence in tissues was examined (after administering the firefly luciferase (fLUC) substrate) to monitor tumor formation (see FIG. 14).
(§2) Mice were housed in metabolic cages (Promethion, Sable Systems International, Las Vegas, Nev.) for a period of 4 days to monitor food consumption, water consumption, body mass, spontaneous activity and behavior, voluntary exercise, oxygen consumption, and carbon dioxide production. Three days after GCV treatment, animals were monitored for three nights, and the following nocturnal measurements were obtained: VO2 (mL/min); VCO2 (mL/min); food uptake (g); water uptake (g); Kcal/hr; and wheel run distance (m). The data represent the average of the three nocturnal measurements.

[2] = Behavior metrics in p16-3MR mice not injected with tumor cells; format: in vivo, mouse
Description: (§3) Groups of p16-3MR transgenic mice (5 mice per group) were treated once with doxorubicin (10 mg/kg) or vehicle only as described above. Three days later, GCV was administered 5× daily intraperitoneally at 25 mg/kg, or vehicle only was administered. Three different treatment groups of mice included (1) untreated (NT); (2) doxorubicin, no GCV (DOXO+PBS); (3) doxorubicin and GCV (DOXO+GCV). Mice were housed in metabolic cages for 5-8 days and monitored as described above.

senescent cells [3] = assay: Doxorubicin-induced senescent cells in tissues of p16-3MR mice (mRFP and p16INK4a mRNA); format: in vivo, mouse; settings: doxorubicin 10 mg/kg
Description: Similar results were observed when the senescent cell accumulation was induced with the chemotherapeutic agent, doxorubicin. […] Various tissues were isolated (liver, heart, lung, kidney, and spleen) and measured for abundance of mRNAs encoding mRFP and p16INK4a as markers for senescent cells (see FIGS. 9A and 9B, respectively).

p16INK4a and mRFP mRNAs = assay: Senescent cell biomarkers in skin biopsies of doxorubicin-treated p16-3MR mice; format: in vivo, mouse; settings: doxorubicin 10 mg/kg, then vehicle or GCV 25 mg/kg daily for 7 days; FIG. 10
Description: (§4) Briefly, p16-3MR transgenic mice were treated with vehicle (ctrl) or 10 mg/kg doxorubicin. Seven days after doxorubicin treatment, mice were treated daily with GCV (25 mg/kg) for 7 days or vehicle only. 3 days after the last GCV treatment, 4×10^5 B16 mouse melanoma cells were injected subcutaneously into the p16-3MR transgenic mice, and mice were sacrificed after 12 days for analysis.
Skin biopsies were collected and measured for abundance of senescent cell biomarkers (p16INK4a and mRFP mRNAs).

[4] = Metabolic cage measurements in p16-3MR mice not injected with tumor cells; format: in vivo, mouse; settings: doxorubicin 10 mg/kg once, GCV 25 mg/kg i.p. 5x daily
Description: as §3

[5] = Behavior metrics in p16-3MR mice bearing MMTV-PymT tumors; format: in vivo, mouse
Description: as §1, §2
Behavior of animals treated doxorubicin or doxorubicin and GCV was assessed by several criteria accepted in the art as behavior metrics.

B16 mouse melanoma cells [6] = assay: Subcutaneous B16 melanoma growth in doxorubicin-treated p16-3MR mice; format: in vivo; settings: for tumor growth / primary tumors (B16 bioluminescence) / tumor diameters (tumor sizes): then vehicle or GCV, twelve days after B16 injection; for tumor growth / primary tumors (B16 bioluminescence): FIG. 11; for tumor diameters (tumor sizes): FIG. 12
Description: as §4

[7] = system: K-Ras induced lung tumors; assay: K-Ras mediated lung tumor multiplicity in INK-ATTAC:K-RasLA1 mice; format: in vivo, mouse; design: dose or concentration left out as unconfirmed; settings: INK-ATTAC3:K-RasLA1 and INK-ATTAC5:K-RasLA1 mice; from three weeks of age; twenty one days after treatment; FIG. 4
Description: Briefly, INK-ATTAC (p16^Ink4a apoptosis through targeted activation of caspase) transgenic mice have an FK506-binding protein (FKBP)-caspase 8 (Casp8) fusion polypeptide under the control of the p16^Ink4a promoter (see FIG. 5 providing a vector sequence for the transgene and FIG. 6 providing sequences for components of the transgene including the promoter sequence). In the presence of AP20187, a synthetic drug that induces dimerization of a membrane bound myristoylated FKBP-Casp8 fusion protein, senescent cells specifically expressing the FKBP-Casp8 fusion protein via the p16^Ink4a promoter undergo programmed cell death (apoptosis) (see, e.g., Baker, Nature, supra, FIG. 1 therein). Two founder lines (INK-ATTAC^3 and INK-ATTAC^5) were each bred with the K-rasLA1 tumor model. […]
Two INK-ATTAC:K-RasLA1 were produced (one for INK-ATTAC line 3 and one for line 5). […] Twenty one days after treatment, the mice were sacrificed and tumor multiplicity in lungs was measured. […] In addition, metastasis and overall survival will be monitored after tumor induction in the presence or absence of p16-positive cells.

[8] = system: p16INK4a, IL-6, MMP-3, mRFP expression; assay: RNA expression of SASP biomarkers and mRFP reporter after irradiation and GCV; format: in vivo, mouse
senescent cells [9] = assay: Detection and clearance of senescent cells by rLUC bioluminescence in irradiated p16-3MR mice; format: in vivo, mouse; settings: 7 Gy X-ray, after three months GCV 25 mg/kg, lung tissue, FIG. 1A
Description: Briefly, a group of p16-3MR transgenic mice were exposed to whole body ionizing radiation (7 Gy X-ray) and a control group of p16-3MR transgenic mice were mock-irradiated. After three months, the mice were treated with GCV (25 mg/kg) or vehicle only, and then at least two weeks later bioluminescence in tissues was examined after administering the rLUC substrate.

B16 mouse melanoma cells [10] = assay: B16 melanoma tail-vein engraftment in irradiated p16-3MR mice (primary tumors and metastases); format: in vivo
Description: Briefly, 10^6 B16 mouse melanoma cells, a highly aggressive cell line that is syngeneic with p16-3MR transgenic mice (C57B16 background), that express firefly luciferase (fLUC, to enable their detection by bioluminescence) were injected into the tail vein of the p16-3MR transgenic mice three months after being either mock irradiated or irradiated, as described in Example 2. B16 mouse melanoma cells first colonize the lung, where they form primary tumors approximately two weeks after injection, and thereafter metastasize to distal tissues to form secondary tumors in, for example, the pancreas, liver and visceral fat. The biolumninescence markers, fLUC and rLUC are distinguishable because the enzymes use different substrates.
As nodules are difficult to count in fat tissue, metastatic cells were represented as an estimated % of total area of fat.

[11] = MMTV-PymT tumor mice, 28 days after injection with tumor cells
[12] = GCV, fifteen days after B16 injection, FIG. 2C

- Kcal/hr [1]: 0.39 ± 0.1 kcal/h
- VCO2 [1]: 1.19 ± 0.35 mL/min
- VO2 [1]: 1.35 ± 0.33 mL/min
- Wheel run distance [1]: 3315 ± 1958 m
- IHOME [2]: 1.86 ± 1.66
- LLNGE [2]: 61.46 ± 18.11
- SLNGE [2]: 6.94 ± 2.51
- THOME [2]: 1.15 ± 1.12
- WHEEL [2]: 9.58 ± 13.12
- Kcal/hr [4]: 0.34 ± 0.1 kcal/h
- VCO2 [4]: 1.1 ± 0.36 mL/min
- VO2 [4]: 1.14 ± 0.34 mL/min
- Wheel run distance (total m) [4]: 2708 ± 1867 m
- IHOME: Entered habitat (stable mass reading) [5, 11]: 4.86 ± 12.3
- LLNGE: Long lounge (>60 sec, no non-XY sensor interactions) [5, 11]: 72.06 ± 24.05
- SLNGE: Short lounge (5-60 sec, no non-XY sensor interactions) [5, 11]: 5.34 ± 3.64
- THOME: Interaction with habitat (no stable mass reading) [5, 11]: 1.16 ± 2.54
- WHEEL: Interaction with wheel (>=1 revolution) [5, 11]: 7.09 ± 10.84
Compound: COc1cccc2c1C(=O)c1c(O)c3c(c(O)c1C2=O)C[C@@](O)(C(=O)CO)C[C@@H]3O[C@H]1C[C@H](N)[C@H](O)[C@H](C)O1 [doxorubicin]
- presence of senescent cells in tissues (senescent cells [3]; p16-3MR mice): induced the persistent presence of senescent cells
- levels of mRFP and p16INK4a mRNA in tissues (senescent cells [3]; liver, heart, lung, kidney, spleen, vs untreated control mice, FIGS. 9A, 9B): higher levels of mRFP and p16INK4a in all tissues
- senescence in skin biopsies measured by p16INK4a and mRFP expression (p16INK4a and mRFP mRNAs): increased senescence
- growth of B16 melanoma cells injected subcutaneously (B16 mouse melanoma cells [6]; doxorubicin 10 mg/kg): stimulated the growth
- tumor growth / primary tumors (B16 bioluminescence) (B16 mouse melanoma cells [6]; doxorubicin 10 mg/kg): increased
- tumor diameters (tumor sizes) (B16 mouse melanoma cells [6]; doxorubicin 10 mg/kg): increased tumor sizes

Compound: CC[C@H](C(=O)N1CCCC[C@H]1C(=O)O[C@H](CCc1ccc(OC)c(OC)c1)c1cccc(OCC(=O)NCC(CNC(=O)COc2cccc([C@@H](CCc3ccc(OC)c(OC)c3)OC(=O)[C@@H]3CCCCN3C(=O)[C@@H](CC)c3cc(OC)c(OC)c(OC)c3)c2)CN(C)C)c1)c1cc(OC)c(OC)c(OC)c1 [AP20187]
- tumor numbers (tumor multiplicity in lungs) [7]: significantly reduced

Compound: Nc1nc(O)c2ncn(COC(CO)CO)c2n1 [GCV, ganciclovir]
- p16INK4a (p16), IL-6, MMP-3 and mRFP expression levels ([8]; irradiated p16-3MR mice treated with GCV, FIG. 1B): returned p16INK4a (p16), IL-6, MMP-3 and mRFP expression levels to those found in the unirradiated control mice
- effect on expression levels in wild-type mice ([8]; wild-type, non-transgenic C57B16 mice, data not shown): no detectable effect
- rLUC expression levels (bioluminescence in tissues) (senescent cells [9]): comparable to unirradiated mice
- senescence in skin biopsies measured by p16INK4a and mRFP expression (p16INK4a and mRFP mRNAs): low levels of p16INK4a and mRFP expression
- Detection of metastatic B16 melanoma cells: Fat (estimated % of total area of fat) (B16 mouse melanoma cells [10]; 18 days after injection): 25%
- Detection of metastatic B16 melanoma cells: Liver (luminescent metastatic nodules) (B16 mouse melanoma cells [10]; 18 days after injection): 7 ± 3.6 nodules
- Detection of metastatic B16 melanoma cells: Lung (luminescent nodules) (B16 mouse melanoma cells [10]; 18 days after injection): TNTC
- levels of B16 cells as detected by luminescence (B16 mouse melanoma cells [10]; GCV, day 18, FIG. 8): still showed relatively low levels of B16 cells
- primary lung tumors (B16 mouse melanoma cells [10]; GCV, eighteen days after injection, FIG. 3A): large primary lung tumors were evident
- metastases in distal organs (liver and fat tissue) (B16 mouse melanoma cells [10]; GCV, eighteen days after injection, FIG. 3A, 3C): almost devoid of metastases
- metastases (B16 mouse melanoma cells [10]; [12]): many fewer metastases
- primary tumors (B16 mouse melanoma cells [10]; [12]): much smaller primary tumors
- levels of B16 cells as detected by luminescence (B16 mouse melanoma cells [10]; GCV, fifteen days after injection, FIG. 8): relatively low levels of B16 cells
- active behaviors (WHEEL, LLNGE, SLNGE) ([5]; tumor model animals treated with GCV after doxorubicin, vs doxorubicin only): significantly more active behaviors
- tumor growth / primary tumors (B16 bioluminescence) (B16 mouse melanoma cells [6]; doxorubicin 10 mg/kg): much smaller primary tumors
- tumor diameters (tumor sizes) (B16 mouse melanoma cells [6]; doxorubicin 10 mg/kg): smaller tumor sizes
- size of B16 melanoma tumors (B16 mouse melanoma cells [6]; mice pre-treated with doxorubicin 10 mg/kg, GCV 25 mg/kg daily for 7 days): substantially reduced the size
